Assay results: patent US7649012B2, “Compounds, pharmaceutical compositions containing same, and methods of use for same” (FASgen, Inc., priority 2002, dated 2010)
Converted amounts (≈) assume the structure as drawn.

Tests used:
Assay type in all cases: cell-based
[1] = tested on: MCF-7 human breast cancer cells; experiment: [14C]acetate incorporation into total lipids; conditions: for IC50: Homo sapiens, MCF7, [14C]acetate incorporation into lipids; for 14C(IC50): [14C]acetate incorporation into lipids
Experimental: This assay measures the incorporation of [^14C]acetate into total lipids and is a measure of fatty acid synthesis pathway activity in vitro. It is utilized to measure inhibition of fatty acid synthesis in vitro.
MCF-7 human breast cancer cells cultured as above, are plated at 5×10^4 cells per well in 24-well plates. […] DMSO is added to triplicate wells for a vehicle control. C75 is run at 5 and 10 μg/ml in triplicate as positive controls. After 4 hours of incubation, 0.25 μCi of [^14C]acetate (10 μl volume) is added to each well.
After 2 hours of additional incubation, medium is aspirated from the wells and 800 μl of chloroform:methanol (2:1) and 700 μl of 4 mM MgCl2 is added to each well. Contents of each well are transferred to 1.5 Eppendorf tubes, and spun at full-speed for 2 minutes in a high-speed Eppendorf Microcentrifuge 5415D. After removal of the aqueous (upper) layer, an additional 700 μl of chloroform:methanol (2:1) and 500 μl of 4 mM MgCl2 are added to each tube and then centrifuged for 1 minutes as above. The aqueous layer is removed with a Pasteur pipette and discarded. An additional 400 μl of chloroform:methanol (2:1) and 200 μl of 4 mM MgCl2 are added to each tube, then centrifuged and aqueous layer is discarded. The lower (organic) phase is transferred into a scintillation vial and dried at 40° C. under N2 gas. Once dried, 3 ml of scintillant (APB #NBC5104) is added and vials are counted for ^14C. The Beckman Scintillation counter calculates the average cpm values for triplicates.
The IC50 for the compounds is defined as the concentration of drug leading to a 50% reduction in [^14C]acetate incorporation into lipids compared to controls. […] The average cpm values are computed by the Beckman scintillation counter (Model LS6500) for each compound concentration. Computation of linear regression, best-fit line, r^2, and 95% confidence intervals are calculated using Prism Version 3.0 (Graph Pad Software).

[2] = tested on: MCF-7 human breast cancer cells; experiment: XTT cytotoxicity assay; conditions: MCF7, MCF-7, 72 hours, some cells marked (M)
Experimental: The XTT assay is a non-radioactive alternative for the [^51 Cr] release cytotoxicity assay. XTT is a tetrazolium salt that is reduced to a formazan dye only by metabolically active, viable cells. The reduction of XTT is measured spectrophotometrically as OD490-OD650.
To measure the cytotoxicity of specific compounds against cancer cells, 9×10^3 MCF-7 human breast cancer cells, obtained from the American Type Culture Collection are plated per well in 96 well plates in DMEM medium with 10% fetal bovine serum, insulin, penicillin, and streptomycin. Following overnight culture at 37° C. and 5% CO2, the compounds to be tested, dissolved in DMSO, are added to the wells in 1 μl volume at the following concentrations: 80, 40, 20, 10, 5, 2.5, 1.25, and 0.625 μg/ml in triplicate. Additional concentrations are tested if required. 1 μl of DMSO is added to triplicate wells are the vehicle control. C75 is run at 40, 20, […], and 5 μg/ml in triplicate as positive controls. After 72 hours of incubation, cells are incubated for 4 hours with the XTT reagent as per manufacturer's instructions (Cell Proliferation Kit II (XTT) Roche). Plates are read at OD490 and OD650 on a Molecular Devices SpectraMax Plus Spectrophotometer. Three wells containing the XTT reagent without cells serve as the plate blank. XTT data are reported as OD490-OD650-Averages and standard error of the mean are computed using SOFTmax Pro software (Molecular Dynamics).
The IC50 for the compounds is defined as the concentration of drug leading to a 50% reduction in OD490-OD650 compared to controls. The OD490-OD650 are computed by the SOFTmax PRO software (Molecular Devices) for each compound concentration. IC50 is calculated by linear regression, plotting the FAS activity as percent of control versus drug concentrations. Linear regression, best-fit line, r^2, and 95% confidence intervals are determined using Prism Version 3.0 (Graph Pad Software).

[3] = tested on: MCF-7 human breast cancer cells; experiment: Crystal violet cell growth assay; conditions: MCF7, MCF-7, 72 hours, read-out: Cr. Violet(IC50)
Experimental: The crystal violet assay measure cell growth but not cytotoxicity. This assay employs crystal violet staining of fixed cells in 96-well plates with subsequent solubilization and measurement of OD490 on a spectrophotometer. The OD490 corresponds to cell growth per unit time measured. Cells are treated with the compounds of interest or vehicle controls and IC50 for each compound is computed.
To measure the cytotoxicity of specific compounds against cancer cells, 5×10^4 MCF-7 human breast cancer cells, obtained from the American Type Culture Collection are plated per well in 24 well plates in DMEM medium with 10% fetal bovine serum, penicillin, and streptomycin. Following overnight culture at 37° C. and 5% CO2, the compounds to be tested, dissolved in DMSO, are added to the wells in 1 μl volume at the following concentrations: 50, 40, 30, 20, and 10 μg/ml in triplicate. Additional concentrations are tested if required. 1 μl of DMSO is added to triplicate wells are the vehicle control. C75 is run at 10, and 5 μg/ml in triplicate as positive controls.
After 72 hours of incubation, cells are stained with 0.5 ml of Crystal Violet stain (0.5% in 25% methanol) in each well. After 10 minutes, wells are rinsed, air dried, and then solubilized with 0.5 ml 10% sodium dodecylsulfate with shaking for 2 hours.

| SMILES | IC50 [1] [µg/mL] | IC50 [2] [µg/mL] | IC50 [3] [µg/mL] | 14C(IC50) [1] |
| --- | --- | --- | --- | --- |
| C/C=C/C(C)=C/C1(C)SC(=O)C=C1O (stereo not shown) | 17.3 (≈ 82.3 µM) | > 80 | > 50 | – |
| CC/C=C/C=C/C1(C)SC(=O)C=C1O (stereo not shown) | 16.9 (≈ 80.4 µM) | > 80 | > 50 | – |
| C=C/C(C)=C/C1(C)SC(=O)C=C1O (stereo not shown) | – | > 80 | > 50 | – |
| CCCC/C=C/C=C/C1(C)SC(=O)C=C1O (stereo not shown) | 25.7 (≈ 108 µM) | 59.4 ± 6.4 (≈ 249 µM) | 43.9 ± 4.8 (≈ 184 µM) | – |
| CCCCCCC1(C)SC(=O)C=C1O (stereo not shown) | 16.5 ± 3.8 (≈ 77 µM) | > 80 | > 50 | – |
| CCCCCCCCC1(C)SC(=O)C=C1O (stereo not shown) | 12.6 ± 4.4 (≈ 52 µM) | 17.6 ± 0.1 (≈ 72.6 µM) | 28.7 (≈ 118 µM) | – |
| CCCCCCCCC1(C)SC(=O)C(C)=C1O (stereo not shown) | 16.5 ± 5.7 (≈ 64.3 µM) | 48 ± 1.4 (≈ 187 µM) | 29.4 ± 4.3 (≈ 115 µM) | – |
| CCCCCCC1(C)SC(=O)C=C1OC (stereo not shown) | 14 ± 2.8 (≈ 61.3 µM) | 9.4 ± 1.5 (≈ 41.2 µM) | 26.3 ± 4.3 (≈ 115 µM) | – |
| CCCCCCCCC1(C)SC(=O)C=C1OC (stereo not shown) | 11 (≈ 42.9 µM) | 16.4 ± 2.3 (≈ 64 µM) | 21.4 (≈ 83.5 µM) | – |
| CCCCCCCCC1(C)SC(=O)C(C)=C1OC (stereo not shown) | 63.8 (≈ 236 µM) | 17.3 ± 5.9 (≈ 64 µM) | 15.9 ± 1.9 (≈ 58.8 µM) | – |
| C=CCC1=C(OC)C(C)(CCCCCCCC)SC1=O (stereo not shown) | 23.1 ± 17.4 (≈ 77.9 µM) | 55 ± 2 (≈ 186 µM) | 22.3 (≈ 75.2 µM) | – |
| CCCCCCCC[C@@]1(C)SC(=O)C=C1OCC(=O)O | 13.8 ± 1.1 (≈ 45.9 µM) | 50.3 ± 2.8 (≈ 167 µM) | 33.7 (≈ 112 µM) | – |
| CCCCCCCCC1(C)SC(=O)C=C1OC(=O)OCC (stereo not shown) | 14.5 ± 6.9 (≈ 46.1 µM) | 15.1 ± 2.6 (≈ 48 µM) | 31.4 ± 5.7 (≈ 99.9 µM) | – |
| CC1(Cc2ccccc2)SC(=O)C=C1O (stereo not shown) | – | > 80 | > 50 | Neg |
| COC1=CC(=O)SC1(C)Cc1ccccc1 (stereo not shown) | – | 61.3 ± 3.9 (≈ 262 µM) | 20.9 (≈ 89.2 µM) | – |
| CCCCCCCCC1(C)SC(=O)C(C(C)O)=C1OC (stereo not shown) | 21.7 (≈ 72.2 µM) | 21 ± 2.9 (≈ 69.9 µM) | 23.2 (≈ 77.2 µM) | – |
| CCCCCCCCC1(C)SC(=O)C(C(C)O)=C1O (stereo not shown) | 17.6 (≈ 61.4 µM) | 23.9 ± 2.9 (≈ 83.4 µM) | 19.5 (≈ 68.1 µM) | – |
| CCCCCCCCC1(C)SC(=O)C=C1OCC(=O)NNC(=O)c1ccco1 (stereo not shown) | 16.4 (≈ 40.1 µM) | 26.4 (≈ 64.6 µM) | 26.3 (≈ 64.4 µM) | – |
| CCCCCCCCC1(C)SC(=O)C=C1OCC(=O)NNC(C)=O (stereo not shown) | 11.5 (≈ 32.3 µM) | 25.3 (≈ 71 µM) | 28.7 (≈ 80.5 µM) | – |
| CCCCCCCCC1(C)SC(=O)C=C1OCC(=O)NNCc1ccc(Cl)cc1 (stereo not shown) | 10.5 ± 2.6 (≈ 23.9 µM) | 6.7 (≈ 15.3 µM) | < 5 | – |

| SMILES | IC50 [1] [µg/mL] | IC50 [2] [µg/mL] | IC50 [3] [µg/mL] | 14C(IC50) [1] |
| --- | --- | --- | --- | --- |
| C=CCN(C)C(=O)COC1=CC(=O)SC1(C)CCCCCCCC (stereo not shown) | 25.7 (≈ 72.7 µM) | 9.2 ± 2.2 (≈ 26 µM) | 9 (≈ 25.5 µM) | – |
| CCCCCCCCC1(C)SC(=O)C=C1OCc1ccccc1 (stereo not shown) | – | 29.2 (≈ 87.8 µM) | 9.5 (≈ 28.6 µM) | Neg(stim) |
| C=CCC1(C)C(=O)S[C@](C)(CCCCCCCC)C1=O (mixture of isomers) | 14.9 | 50.4 ± 4.7 | > 50 | – |
| C#CCOC1CC(=O)S[C@]1(C)CCCCCC (mixture of isomers) | 21.9 ± 1.5 | 8.9 ± 2.3 | 12.1 ± 1.5 | – |
| C=CCOC1=CC(=O)S[C@]1(C)CCCCCC (racemic) | – | 9 ± 1.1 (≈ 35.4 µM) | 8.1 (≈ 31.8 µM) | Neg |
| C=CCOC1=CC(=O)S[C@]1(C)CCCCCCCC (racemic) | – | 14.5 ± 1.5 (≈ 51.3 µM) | 11 (≈ 38.9 µM) | Neg |
| CCCCCC[C@@]1(C)SC(=O)C=C1OCCCCCl (racemic) | 8.6 (≈ 28.2 µM) | 20.8 ± 0.9 (≈ 68.2 µM) | 16.3 (≈ 53.5 µM) | – |
| CCCCCCCC[C@@]1(C)SC(=O)C=C1OCCCCCl (racemic) | 6.8 (≈ 20.4 µM) | 35.3 ± 2.2 (≈ 106 µM) | 10.3 ± 0.3 (≈ 30.9 µM) | – |
| CCCCCC[C@@]1(C)SC(=O)C=C1OCC(=O)OCC (racemic) | 14.2 ± 0.2 (≈ 47.3 µM) | 39.6 ± 2.2 (≈ 132 µM) | 17 (≈ 56.6 µM) | – |
| CCCCCCCC[C@@]1(C)SC(=O)C=C1OCC(=O)OCC (racemic) | 10.8 ± 5.8 (≈ 32.9 µM) | 35.3 ± 10.4 (≈ 107 µM) | 17.9 ± 5.1 (≈ 54.5 µM) | – |
| C=CCNC(=O)COC1=CC(=O)S[C@]1(C)CCCCCCCCCC (racemic) | – | 12.1 ± 0.6 (≈ 32.9 µM) | 10.4 (≈ 28.3 µM) | Neg |
| CCCCCC[C@@]1(C)SC(=O)C=C1OCC(=O)NCC(=O)OC (racemic) | 9.8 (≈ 28.5 µM) | 40.5 ± 5.1 (≈ 118 µM) | 32.5 ± 11.7 (≈ 94.6 µM) | – |
| CCCCCC[C@@]1(C)SC(=O)C=C1OCC(=O)NCC(=O)O (racemic) | 6.6 (≈ 20 µM) | > 80 | > 50 | – |
| CCCCCC[C@@]1(C)SC(=O)C=C1OCC(=O)NCCCBr (racemic) | 6.7 (≈ 17.1 µM) | 21.2 ± 1.1 (≈ 54 µM) | 12.6 ± 3.7 (≈ 32.1 µM) | – |
| CCCCCCCC[C@@]1(C)SC(=O)C=C1OC(=O)OC (racemic) | 10.7 (≈ 35.6 µM) | 21.6 ± 0.2 (≈ 71.9 µM) | 41.4 ± 14.1 (≈ 138 µM) | – |
| C=CCOC(=O)OC1=CC(=O)S[C@]1(C)CCCCCCCC (racemic) | 14.2 (≈ 43.5 µM) | 34.9 ± 10 (≈ 107 µM) | 35.8 (≈ 110 µM) | – |
| CCCCCCCC[C@@]1(C)SC(=O)C=C1OC(=O)CC (racemic) | 22.6 (≈ 75.7 µM) | 26.8 ± 0.6 (≈ 89.8 µM) | 38.6 (≈ 129 µM) | – |
| CCCCCCCC[C@@]1(C)SC(=O)C(C(C)=O)=C1O (racemic) | 12.1 ± 0.1 (≈ 42.5 µM) | 125 ± 0.7 (≈ 439 µM) | 8.4 (≈ 29.5 µM) | – |
| CCCCCCCC[C@@]1(C)SC(=O)C(C(=O)C(F)(F)F)=C1O (racemic) | 14.7 (≈ 43.4 µM) | 18.4 ± 2.7 (≈ 54.4 µM) | 45.3 (≈ 134 µM) | – |
| CCCCCCCC[C@@]1(C)SC(=O)C=C1OC(=O)NC(C)C (racemic) | 23.1 ± 13.2 (≈ 70.5 µM) | 45.7 ± 25.9 (≈ 140 µM) | 22.5 (≈ 68.7 µM) | – |
